One assay concerns the target HLA-DRB4 (DRB4*0101) (Homo sapiens, UniProt P01903+P13762, G164S). In words: Competitive HLA II/peptide binding assay, HLA-DRB4. The note with it: competition with biotinylated tracer; 3 independent experiments.
The target in a further assay is HLA-DR7 (DRB1*0701) (Homo sapiens, UniProt P01903+P01911, A100R/A102G/A103Q/D57E/D86V/E43K/F76Y/K127E/L162R/M171V/P40G/Q125H/Q99D/R33Q/R42Y/R54Q/S133A/S66F/T210M/V115G/Y107V/Y59L/Y89S). Briefly: biochemical. The note with it: competition with biotinylated tracer; 3 independent experiments; read-out: Binding activity DR7 (IC50).
Another assay concerns the target HLA-DR4 (DRB1*0401) (Homo sapiens, UniProt P01903+P01911, A100K/A169T/F76Y/I96L/K127E/L162R/M171V/N62H/P40V/Q125Y/R42H/S133A/S149N/S66Y/V115G/V209L/W38E). Briefly: Competitive HLA II/peptide binding assay, HLA-DR4. Conditions: competition with biotinylated tracer; 3 independent experiments.
For the next assay, the target named is HLA-DR1 (DRB1*0101) (Homo sapiens, UniProt P01903+P01911, A100R/D57E/F55L/F60I/F76Y/I96L/L162R/M171V/P40L/Q125E/R42F/V115G/Y59C). Briefly: Competitive HLA II/peptide binding assay, HLA-DR1. The note with it: competition with biotinylated tracer; 3 independent experiments.
The target in a further assay is HLA-DRB5 (DRB5*0101) (Homo sapiens, UniProt P01903+Q30154). In words: Competitive HLA II/peptide binding assay, HLA-DRB5. The note with it: competition with biotinylated tracer; 3 independent experiments.
For the next assay, the target named is T1, HLA-DP401 (DP*0401) (Homo sapiens, UniProt P04440+P20036).
T1 sequence (P04440 30-258): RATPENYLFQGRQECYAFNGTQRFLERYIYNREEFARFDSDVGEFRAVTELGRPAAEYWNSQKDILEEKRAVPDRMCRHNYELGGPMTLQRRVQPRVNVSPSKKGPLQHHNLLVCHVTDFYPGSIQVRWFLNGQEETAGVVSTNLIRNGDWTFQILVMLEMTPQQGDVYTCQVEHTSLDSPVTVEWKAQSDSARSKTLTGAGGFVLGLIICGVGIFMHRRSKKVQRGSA
T1 sequence (P20036 29-260): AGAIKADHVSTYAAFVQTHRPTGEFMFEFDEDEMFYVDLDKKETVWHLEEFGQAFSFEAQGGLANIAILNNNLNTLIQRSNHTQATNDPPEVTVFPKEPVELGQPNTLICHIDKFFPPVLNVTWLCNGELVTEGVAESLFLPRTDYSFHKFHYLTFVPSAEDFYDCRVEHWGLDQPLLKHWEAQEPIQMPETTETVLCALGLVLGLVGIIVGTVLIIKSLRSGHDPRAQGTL
Briefly: biochemical. Conditions: competition with biotinylated tracer; 3 independent experiments; read-out: Binding activity DP401 (IC50).

A further assay addresses HLA-DR3 (DRB1*0301) (Homo sapiens, UniProt P01903+P01911, A100K/A102G/A103R/A169T/F55Y/I96L/K41T/L162R/M171V/P40S/Q125H/Q178H/Q39Y/R42S/S66N/T106N/T262R/W38E/Y61H). In words: biochemical. The note with it: competition with biotinylated tracer; 3 independent experiments; read-out: Binding activity DR3 (IC50).
For the next assay, the target named is HLA-DR15 (DRB1*1501) (Homo sapiens, UniProt P01903+P01911). In words: Competitive HLA II/peptide binding assay, HLA-DR15. Conditions: competition with biotinylated tracer; 3 independent experiments.
For a further assay, the target named is HLA-DR11 (DRB1*1101) (Homo sapiens, UniProt P01903+P01911, A100R/A169T/A87E/I96F/K41T/L162R/M171V/P40S/Q125H/Q178H/Q39Y/Q99D/R42S/S66Y/T262R/V115G/W38E). Briefly: biochemical. Conditions: competition with biotinylated tracer; 3 independent experiments; read-out: Binding activity DR11 (IC50).
The target in another assay is HLA-DRB3 (DRB3*0101) (Homo sapiens, UniProt P01903+P79483). In words: Competitive HLA II/peptide binding assay, HLA-DRB3. Conditions: competition with biotinylated tracer; 3 independent experiments.
Assay [1] deals with 12 predominant HLA II molecules. Briefly: Binding to the 12 predominant HLA II molecules, summary. The note with it: number of the 12 predominant HLA II molecules bound (IC50 < 1000 nM). Also on record: species or system human. From the text:
The assays for binding to HLA II molecules are competitive binding assays with immunoenzymatic visualization, as described in U.S. Pat. No. 6,649,166, Texier et al., J. Immunol., 2000, 164, 3177-3184 and Texier et al., Eur. J. Immunol., 2001, 31, 1837-1846, for the HLA-DR molecules, and in PCT international application WO 03/040299 and Castelli et al., J. Immunol., 2002, 169, 6928-6934, for the HLA-DP4 molecule. The use of these assays for measuring the binding activity of peptides derived from various antigens is illustrated in U.S. Pat. No. 6,649,166 and PCT international applications WO 02/090382, WO 03/040299 and WO 2004/014936.
The sensitivity of each assay is reflected by the IC50 values observed with the nonbiotinylated peptides which correspond to the tracers; the IC50 values of the tracers vary by a factor of less than three.

For the next assay, the target named is T2, HLA-DP402 (DP*0402) (Homo sapiens, UniProt P04440+P20036, A65V/A84D/A85E/L207M).
T2 sequence (P04440 30-258 A65V/A84D/A85E): T1 sequence (P04440 30-258) with A36V, A55D, A56E
T2 sequence (P20036 29-260): T1 sequence (P20036 29-260)
Briefly: biochemical. Conditions: competition with biotinylated tracer; 3 independent experiments; read-out: Binding activity DP402 (IC50).

Another assay addresses HLA-DR13 (DRB1*1301) (Homo sapiens, UniProt P01903+P01911, A100E/A169T/K41T/L162R/M171V/P40S/Q125H/Q178H/Q39Y/Q99D/R42S/S66N/T262R/W38E/Y61H). In words: Competitive HLA II/peptide binding assay, HLA-DR13. Conditions: competition with biotinylated tracer; 3 independent experiments; read-out: Binding activity DR13 (IC50).

Substitutions are numbered along the chain they refer to. No end group written: not given here.

As a reminder, the IC50 is the concentration that gives 50% inhibition. Take “EGWEPDDDPIEEHKK [65-79, E G W E P D D D P I E E H K K]”: the IC50 at HLA-DRB4 (DRB4*0101), at HLA-DR7 (DRB1*0701), on HLA-DR4 (DRB1*0401), on HLA-DR1 (DRB1*0101), on HLA-DRB5 (DRB5*0101) and on HLA-DP401 (DP*0401) was greater than 100 µM each time. For the same sequence, the IC50 at HLA-DR3 (DRB1*0301), at HLA-DR15 (DRB1*1501), on HLA-DR11 (DRB1*1101), at HLA-DRB3 (DRB3*0101), on HLA-DP402 (DP*0402) and on HLA-DR13 (DRB1*1301) was greater than 100 µM in each case. Moreover, the “No. of molecules fixed” value in assay [1] worked out at 0.
As to “KELEGWEPDDDPIEE [62-76, K E L E G W E P D D D P I E E]”, the IC50 on HLA-DRB4 (DRB4*0101), on HLA-DR7 (DRB1*0701), at HLA-DR4 (DRB1*0401), at HLA-DR1 (DRB1*0101), at HLA-DRB5 (DRB5*0101) and on HLA-DP401 (DP*0401) was greater than 100 µM each time. The IC50 on HLA-DR3 (DRB1*0301) was greater than 100 µM; at HLA-DR15 (DRB1*1501) it was 65 µM; at HLA-DR11 (DRB1*1101), greater than 100 µM; at HLA-DRB3 (DRB3*0101), 29 µM; at HLA-DP402 (DP*0402), greater than 100 µM; on HLA-DR13 (DRB1*1301) it was greater than 100 µM. Further, in assay [1], the “No. of molecules fixed” value is 0.

These data come from patent US9687539B2, “CD4+ T survivin epitopes and uses thereof” (Commissariat a I'Energie Atomique, priority 2005, dated 2017).
